{"source": "paper PMC6162207", "about": "“Identification and pharmaceutical evaluation of novel frog skin-derived serine proteinase inhibitor peptide–PE-BBI (Pelophylax esculentus Bowman-Birk inhibitor) for the potential treatment of cancer” (Scientific Reports, 2018)", "key": {"[1]": {"biological_target": "T1, trypsin from bovine pancreas (Bos taurus, UniProt P00760)", "T1 construct": "purchased Sigma/Aldrich, Poole, Dorset, UK; host or cells: bovine pancreas", "T1 sequence (P00760 24-246)": "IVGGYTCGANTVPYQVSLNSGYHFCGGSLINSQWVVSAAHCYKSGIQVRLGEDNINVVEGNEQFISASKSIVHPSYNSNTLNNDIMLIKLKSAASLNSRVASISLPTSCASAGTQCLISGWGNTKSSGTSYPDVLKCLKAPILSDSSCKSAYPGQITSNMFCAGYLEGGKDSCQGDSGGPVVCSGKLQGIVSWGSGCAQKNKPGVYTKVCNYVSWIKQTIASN", "experiment": "Trypsin inhibitory assay", "type": "biochemical"}, "[2]": {"tested_on": "rat-tail artery smooth muscle", "design": "species or system rat (female Wistar)", "procedure": "Female Wistar rats (250–300 g) were applied in this study and sacrificed followed the principle of institutional animal experimentation ethics and UK animal research guidelines. All of the procedures involved in this study was approved by IACUC of Queen’s University Belfast. Rat-tail artery and bladder were isolated and located in pre-chilled Kreb’s solution equilibrated with 95% O2, 5% CO2[51]. Isolated muscle strips (2–10 mm) were vertically suspended in a 2 mL organ bath containing 37 °C Kreb’s solution. The Kreb’s solution was constant refreshing by constant flowing (2 mL/min) during the assay. Potassium chloride (KCL, 60 mM) was used to test for viability of muscle strips after 20 min equilibration. After the smooth muscle strip were prepared, the synthetic replicates of PE-BBI (10^−11 to 10^−5 M) was used to quantify the myogenic potency on rat-tail artery and bladder smooth muscle. Between each concentration, the smooth muscle strip was washed 5 mins and re-equilibration for another 5 min. Each data point was repeated on at least five independent muscle strips. The tension change was amplified and recorded by a PowerLab System (AD Instruments Pty Ltd.)[51]."}, "[3]": {"tested_on": "Escherichia coli (NCTC 10418)", "experiment": "Antimicrobial MIC assay, E. coli", "type": "cell-based", "details": "1 to 512 μM, MHB, 18 h, 37 °C, 6 replicates, absorbance 550 nm; data not shown", "procedure": "(§1) Gram-negative bacteria Escherichia coli (NCTC 10418); Gram-positive bacteria Staphylococcus aureus (NCTC 10788) and pathogenic yeast Candida albicans (NCYC 1467) were used in minimum inhibitory concentration (MIC) assays to investigate the board antimicrobial activity ability of synthetic PE-BBI. Microorganisms involved in MIC assays were cultured in MHB for 16–18 h. Then sub-cultured for 2~4 h to allow the microorganism to enter the logarithmic growth phase. Subsequently, proper density of bacterial (1 × 10^6 colony forming units (cfu)/mL) and fungi (1 × 10^5 cfu/mL) were seeded into 96 well plate. Different concentration ranged from 1 to 512 μM of PE-BBI were added into each well (6 replicates per concentration). The absorbance value at 550 nm was detected using a Synergy HT plate reader (Biotech, Minneapolis, MN, USA) after 18 h incubation in 37 °C incubator[50]."}, "[4]": {"tested_on": "Staphylococcus aureus (NCTC 10788)", "experiment": "Antimicrobial MIC assay, S. aureus", "type": "cell-based", "details": "1 to 512 μM, MHB, 18 h, 37 °C, 6 replicates, absorbance 550 nm; data not shown", "procedure": "as §1"}, "[5]": {"tested_on": "Candida albicans (NCYC 1467)", "experiment": "Antimicrobial MIC assay, C. albicans", "type": "cell-based", "details": "1 to 512 μM, MHB, 18 h, 37 °C, 6 replicates, absorbance 550 nm; data not shown", "procedure": "as §1"}}, "note": "Positions of bridges follow the written chain, without caps; N, C: chain ends. Residues, ends and D or L forms follow the SMILES beside them."}
{"smiles": "CC[C@H](C)[C@@H]1NC(=O)[C@H](CO)NC(=O)[C@H](CCCCN)NC(=O)[C@H]([C@@H](C)O)NC(=O)[C@H](Cc2c[nH]c3ccccc23)NC(=O)[C@@H](NC(=O)CNC(=O)[C@H](CCCCN)NC(=O)[C@H](CC(C)C)NC(=O)[C@H](C)NC(=O)CN)CSSC[C@@H](C(=O)N[C@@H](CCCCN)C(N)=O)NC(=O)[C@@H]2CCCN2C(=O)[C@H](CCCCN)NC(=O)[C@@H]2CCCN2C(=O)[C@@H]2CCCN2C1=O", "note": "[PE-BBI] (H-GALKGCWTKSIPPKPCK-NH2; disulfide 6-16; N-terminus assumed)", "values": [{"measurement": "Ki", "setting": "[1]", "result": "310 ± 72", "unit": "nM"}, {"measurement": "mode of trypsin inhibition", "setting": "[1]; PE-BBI 0.1–100 µM", "result": "competitive reversible trypsin inhibitory activity"}, {"measurement": "EC50", "setting": "[2]", "result": 8.79, "unit": "nM"}, {"measurement": "antimicrobial activity (MIC), E. coli", "setting": "[3]", "result": "didn’t show any obviously antibacterial activity even in the highest concentration (512 μM)"}, {"measurement": "antimicrobial activity (MIC), S. aureus", "setting": "[4]", "result": "didn’t show any obviously antibacterial activity even in the highest concentration (512 μM)"}, {"measurement": "antimicrobial activity (MIC), C. albicans", "setting": "[5]", "result": "didn’t show any obviously antibacterial activity even in the highest concentration (512 μM)"}]}
